Measurements from patent publication US10551384B2, “MTOR kinase mutations and methods of use thereof” (RUTGERS, THE STATE UNIVERSITY OF NEW JERSEY, priority 2016, dated 2020).
Entries after “also recorded” stand apart in the source; their conditions may differ.

What was measured:
TOR2-mTOR L2185A mutant = test: Yeast spotting assay for drug resistance, TOR2-mTOR L2185A; assay type: cell-based, S. cerevisiae; conditions: 37° C., amphotericin B present (except OSI-027)
Text: (§1) FIGS. 4A-C. […] (FIG. 4A) Scheme of a yeast-based screen for drug-resistant mutations in mTOR kinase domain. mTOR kinase domain is amplified by error-prone PCR to generate randomized mutations, which is then recombined in frame into the TOR2-mTOR plasmid by gap-repair in tort-dg cells, and is selected on SC-leucine minus plates. Replica plating is then made onto SC-leucine plates containing DMSO or mTOR kinase inhibitor for selection of drug resistant clones. (FIG. 4B) tor2-dg cells expressing WT or mutant TOR2-mTOR were serially diluted by 10-fold and assayed for sensitivity to different mTOR kinase inhibitors in the presence of amphotericin B. Vector and TOR2 were used as controls. Drug resistant assay was performed at 37° C. in the presence of amphotericin B (except OSI-027). (FIG. 4C) Systematic mutational analysis of L2185 on drug resistance. tort-dg cells expressing WT or mutant TOR2-mTOR carrying all possible mutations at L2185 were serially diluted by 10-fold and tested for sensitivity to different mTOR kinase inhibitors at 37° C.
(§2) To enhance yeast cell permeability, log phase W303 tort-dg cells were spread evenly on SD-Leu agarose plates. After drying, small sterile filter discs were placed on the surface and 5 μl of indicated mTOR inhibitors or DMSO were applied to each disc with or without adding 5 μl of amphotericin B (10 μM), miconazole (50 μM) or caspofungin (50 μM). Plates were incubated at 37° C. for 3 day. Drug resistance profiles of TOR2-mTOR mutant cells were determined by the spotting assay. For this assay, 10-fold serial dilutions of cells were spotted on SD-leu plates in the presence of indicated mTOR inhibitors with or without amphotericin B (200 nM) and incubated at 37° C. for 3 day.

TOR2-mTOR L2185G mutant = test: Yeast spotting assay for drug resistance, TOR2-mTOR L2185G; assay type: cell-based, S. cerevisiae; conditions: 37° C., with amphotericin B
Text: as §1, §2

[1] = tested on: Flag-mTOR(L2185A) in HEK293T cells; test: mTOR signaling immunoblot in HEK293T cells transiently expressing Flag-mTOR(L2185A); assay type: cell-based, human; conditions: various concentrations, 1 hr, vs WT Flag-mTOR
Description: (FIG. 10A) Flag-mTOR(L2185A), when transiently expressed in HEK293T cells, confers drug resistance to mTOR kinase inhibitors. HEK293T cells transiently expressing WT and L2185A mutant Flag-mTOR were treated with various concentrations of INK-128, OSI-027 for 1 hr. The effect on the level of P-S6K, S6K, P-4E-BP1, 4EB-P1, P-AKT and AKT was analyzed by immunoblot. (FIG. 10B) Sequencing verification of genome-engineered SW480 and H460 cells carrying homozygous and heterozygous L2185A mutations in mTOR locus. (FIG. 10C) Independent clones of engineered SW480 cells confer similar drug resistance. Cells were treated with various concentrations of AZD8055 and INK-128 for 2 days. Cell growth was measured by SRB assay. Clones #1, 3 carry heterozygous L2185A mutation. Clones #2, 4 carry homozygous L2185A mutation. Data represent means±SD in three independent experiments. (FIG. 10D) SW480 cells carrying heterozygous and homozygous mTOR(L2185A) mutant alleles have similar drug resistance to mTOR kinase inhibitors. SW480 cells carrying homozygous WT and L2185A mutant mTOR alleles were treated with various concentrations of AZD8055, INK-128, OSI-027, and PP242 for 2 days. Cell growth was measured by SRB assay. […] Cell growth was measured by SRB assay. […] The effect on level of P-S6K, P-4E-BP1 and P-AKT was analyzed by immunoblot. […] The growth of H460 cells was measured by SRB assay. […]

[2] = tested on: SW480 colorectal cancer cells carrying L2185A mutant mTOR alleles; test: SRB growth assay of SW480 cells carrying L2185A mutant mTOR; assay type: cell-based, human; conditions: various concentrations, 2 day
Description: (FIG. 5A) SW480 cells carrying homozygous WT mTOR or L2185A mutant alleles were treated with various concentrations of AZD8055, INK-128, OSI-027 and PP242 for 2 day. Growth of SW480 cells was measured by SRB assay. Data represent means±SD in three independent experiments. (FIG. 5B) SW480 cells carrying homozygous WT and L2185A mutant mTOR allele were treated with a single dose of AZD8055 (100 nM), INK-128 (100 nM), OSI-027 (6,000 nM), and PP242 (2,000 nM) for different times. Cell growth was measured by SRB assay. The drug carrier DMSO was used as a control. Data represent means±SD in three independent experiments. (FIG. 5C) SW480 cells carrying homozygous WT and L2185A mutant mTOR were treated with various concentrations of INK-128, OSI-027, AZD8055 and PP242 for 1 hr. The effect on the level of P-S6K, S6K, P-4E-BP1, 4EB-P1, P-AKT and AKT was analyzed by immunoblot. […] The growth of SW480 cells was measured by SRB assay. Data represent means±SD in three independent experiments.
Cancer cell lines were maintained in DMEM or RPMI 1640, supplemented with 10% fetal bovine serum (Invitrogen) and 1% penicillin/streptomycin (Invitrogen). CRISPR/cas9 technology was used to engineer mutant mTOR allele in SW480 colorectal and H460 lung cancer cells. Briefly, The target sequence for mTOR, […] (SEQ ID NO: 3 was designed through the online tool at crispr.mit.edu, and cloned into pSPCas9(BB)-2A-GFP vector (PX458 in Addgene). Genomic mTOR mutation was engineered using a protocol as described (Ran, et al. (2013). Nature protocols 8, 2281-2308) and was confirmed by targeted sequencing.
Antibodies against tubulin, S6K, phospho-S6K (Thr389), 4E-BP1, phospho-4E-BP1 (Thr37/46), Akt, phospho-Akt (Thr308), and phospho-Akt (Ser473) were purchased from Cell Signaling Technology. […] For drug sensitivity test, cancer cells were seeded in 96-well plates at a density of 2,000 cells per well. 24 hours later, different concentrations of mTOR inhibitors were added in quadruplicate. Cell growth was measured by the sulforhodamine B (SRB) assay as previously described (Vichai, V., and Kirtikara, K. (2006). Nature protocols 1, 1112-1116).

With `CC(C)n1nc(-c2ccc3oc(N)nc3c2)c2c(N)ncnc21` [INK128] the “drug resistance/sensitivity of TOR2-mTOR L2185A mutant yeast” value (TOR2-mTOR L2185A mutant) was “confer resistance; also recorded: conferring resistance”, the “drug resistance of TOR2-mTOR L2185G mutant yeast” value (TOR2-mTOR L2185G mutant) was “moderately resistant” and the “drug resistance of mTOR signaling (P-S6K, P-4E-BP1, P-AKT) with Flag-mTOR(L2185A)” value [1] was “confers resistance”. The “drug resistance/sensitivity of cell growth, SW480 L2185A vs WT” value [2] was “confers resistance”.
